Data taken from ChEMBL document CHEMBL4800722, “Data for DCP probe BI 605906” (2021).

Legend:
[1] = target: Hepatocyte growth factor receptor (Homo sapiens) (UniProt P08581)
[2] = target: PAS domain-containing serine/threonine-protein kinase (Homo sapiens) (UniProt Q96RG2); experiment: PASK Invitrogen Lab (UK) kinase screen (BI); conditions: Compound concentration 1.0 uM
[3] = target: Beta-1 adrenergic receptor (Homo sapiens) (UniProt P08588); conditions: Compound concentration 10.0 uM
[4] = target: Serine/threonine-protein kinase PLK4 (Homo sapiens) (UniProt O00444); conditions: Compound concentration 1.0 uM
[5] = target: 5-hydroxytryptamine receptor 1E (Homo sapiens) (UniProt P28566); conditions: Compound concentration 10.0 uM
[6] = target: cAMP-dependent protein kinase catalytic subunit beta (Homo sapiens) (UniProt P22694); experiment: PRKACB (PRKAC BET Invitrogen Lab (UK) kinase screen (BI); conditions: Compound concentration 1.0 uM
Homo sapiens = organism: Homo sapiens; experiment: PKBDPH (PKB delta PH) DUNDEE kinase screen (BI); conditions: Compound concentration 10.0 uM
[7] = target: Dual specificity mitogen-activated protein kinase kinase 5 (Homo sapiens) (UniProt Q13163); experiment: MAP2K5 Invitrogen Lab (UK) kinase screen (BI); conditions: Compound concentration 1.0 uM
[8] = GPCRScan assay: inhibition of GABA/PBR; parameters: species or system Rattus norvegicus; radioligand conc. used [nm] 0.3 – 2.0, parental cells brain tissue
[9] = target: AP2-associated protein kinase 1 (Homo sapiens, UniProt Q2M2I8); experiment: Dose response measurement (AAK1)
[10] = target: Dual specificity tyrosine-phosphorylation-regulated kinase 3 (Homo sapiens) (UniProt O43781); conditions: Compound concentration 1.0 uM
Sequence of Dual specificity tyrosine-phosphorylation-regulated kinase 3 (Homo sapiens) (O43781 whole entry): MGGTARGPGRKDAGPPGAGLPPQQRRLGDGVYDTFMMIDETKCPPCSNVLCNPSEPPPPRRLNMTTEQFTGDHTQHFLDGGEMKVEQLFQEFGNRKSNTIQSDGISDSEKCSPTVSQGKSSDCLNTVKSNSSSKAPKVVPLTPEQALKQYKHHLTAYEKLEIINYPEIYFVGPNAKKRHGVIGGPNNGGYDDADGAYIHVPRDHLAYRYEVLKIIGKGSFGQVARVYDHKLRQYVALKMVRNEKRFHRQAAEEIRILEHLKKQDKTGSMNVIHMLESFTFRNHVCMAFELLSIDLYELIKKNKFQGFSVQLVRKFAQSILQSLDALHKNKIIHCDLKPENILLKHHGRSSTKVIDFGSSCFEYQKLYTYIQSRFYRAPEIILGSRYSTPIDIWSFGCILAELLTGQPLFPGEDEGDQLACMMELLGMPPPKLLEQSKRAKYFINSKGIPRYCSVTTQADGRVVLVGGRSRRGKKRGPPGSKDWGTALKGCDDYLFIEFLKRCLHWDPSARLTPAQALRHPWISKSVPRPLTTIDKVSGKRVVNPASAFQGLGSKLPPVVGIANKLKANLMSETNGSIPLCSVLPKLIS

[11] = target: Kappa-type opioid receptor (Homo sapiens) (UniProt P41145); conditions: Compound concentration 10.0 uM
[12] = target: Serine/threonine-protein kinase PAK 2 (Homo sapiens) (UniProt Q13177); conditions: Compound concentration 1.0 uM
[13] = target: 3-phosphoinositide-dependent protein kinase 1 (Homo sapiens) (UniProt O15530)
Sequence of 3-phosphoinositide-dependent protein kinase 1 (Homo sapiens) (O15530 whole entry, looked up): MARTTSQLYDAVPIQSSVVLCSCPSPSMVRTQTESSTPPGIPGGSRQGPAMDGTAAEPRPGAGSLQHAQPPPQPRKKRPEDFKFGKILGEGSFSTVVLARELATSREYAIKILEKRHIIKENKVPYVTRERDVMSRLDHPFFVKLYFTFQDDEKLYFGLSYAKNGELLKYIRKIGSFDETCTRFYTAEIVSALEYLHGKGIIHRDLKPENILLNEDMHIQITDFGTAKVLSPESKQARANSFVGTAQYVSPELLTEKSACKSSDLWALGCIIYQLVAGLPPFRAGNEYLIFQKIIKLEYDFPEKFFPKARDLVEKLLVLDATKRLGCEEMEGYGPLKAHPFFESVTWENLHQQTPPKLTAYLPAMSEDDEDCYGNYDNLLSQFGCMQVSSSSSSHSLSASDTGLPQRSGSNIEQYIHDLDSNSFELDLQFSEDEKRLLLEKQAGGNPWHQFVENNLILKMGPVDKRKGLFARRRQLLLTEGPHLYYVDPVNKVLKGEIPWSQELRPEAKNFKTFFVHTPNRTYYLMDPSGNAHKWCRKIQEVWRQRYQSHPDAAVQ

[14] = target: Histamine H4 receptor (Homo sapiens) (UniProt Q9H3N8); conditions: Compound concentration 10.0 uM
[15] = target: Casein kinase I isoform gamma-1 (Homo sapiens) (UniProt Q9HCP0); experiment: CSNK1G1 Invitrogen Lab (UK) kinase screen (BI); conditions: Compound concentration 1.0 uM
Sequence of Casein kinase I isoform gamma-1 (Homo sapiens) (Q9HCP0 whole entry, looked up, canonical isoform): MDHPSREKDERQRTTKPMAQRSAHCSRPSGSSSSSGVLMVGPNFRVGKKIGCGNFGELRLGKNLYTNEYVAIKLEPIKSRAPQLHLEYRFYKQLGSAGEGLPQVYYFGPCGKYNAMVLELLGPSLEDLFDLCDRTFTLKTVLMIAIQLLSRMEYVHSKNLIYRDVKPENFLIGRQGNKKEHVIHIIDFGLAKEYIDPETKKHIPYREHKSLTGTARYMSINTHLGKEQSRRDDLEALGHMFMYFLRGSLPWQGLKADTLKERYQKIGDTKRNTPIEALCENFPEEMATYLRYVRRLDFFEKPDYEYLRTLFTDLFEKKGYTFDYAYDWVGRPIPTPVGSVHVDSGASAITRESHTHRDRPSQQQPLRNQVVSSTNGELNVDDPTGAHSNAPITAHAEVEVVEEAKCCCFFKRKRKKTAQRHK

[16] = target: Histamine H2 receptor (Homo sapiens) (UniProt P25021); conditions: Compound concentration 10.0 uM
[17] = target: Tyrosine-protein kinase ZAP-70 (Homo sapiens) (UniProt P43403); conditions: Compound concentration 1.0 uM
[18] = target: cAMP-dependent protein kinase catalytic subunit PRKX (Homo sapiens) (UniProt P51817); conditions: Compound concentration 1.0 uM
[19] = target: D(1A) dopamine receptor (Homo sapiens) (UniProt P21728); conditions: Compound concentration 10.0 uM
Sequence of D(1A) dopamine receptor (Homo sapiens) (P21728 whole entry): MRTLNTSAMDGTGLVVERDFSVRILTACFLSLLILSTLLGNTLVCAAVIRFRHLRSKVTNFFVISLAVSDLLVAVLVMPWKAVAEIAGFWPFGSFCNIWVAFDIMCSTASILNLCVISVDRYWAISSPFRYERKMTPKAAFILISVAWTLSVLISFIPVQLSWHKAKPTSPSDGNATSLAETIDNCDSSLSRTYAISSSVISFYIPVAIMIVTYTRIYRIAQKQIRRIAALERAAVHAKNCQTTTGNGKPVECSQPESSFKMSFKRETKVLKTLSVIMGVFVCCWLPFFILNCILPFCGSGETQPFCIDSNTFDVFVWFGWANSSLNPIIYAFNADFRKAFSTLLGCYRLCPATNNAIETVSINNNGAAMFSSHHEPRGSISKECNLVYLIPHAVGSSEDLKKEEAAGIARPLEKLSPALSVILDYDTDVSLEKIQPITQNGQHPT

[20] = target: 3-phosphoinositide-dependent protein kinase 1 (Homo sapiens) (UniProt O15530); conditions: Compound concentration 1.0 uM
[21] = target: Inhibitor of nuclear factor kappa-B kinase subunit epsilon (Homo sapiens) (UniProt Q14164)
Sequence of Inhibitor of nuclear factor kappa-B kinase subunit epsilon (Homo sapiens) (Q14164 whole entry): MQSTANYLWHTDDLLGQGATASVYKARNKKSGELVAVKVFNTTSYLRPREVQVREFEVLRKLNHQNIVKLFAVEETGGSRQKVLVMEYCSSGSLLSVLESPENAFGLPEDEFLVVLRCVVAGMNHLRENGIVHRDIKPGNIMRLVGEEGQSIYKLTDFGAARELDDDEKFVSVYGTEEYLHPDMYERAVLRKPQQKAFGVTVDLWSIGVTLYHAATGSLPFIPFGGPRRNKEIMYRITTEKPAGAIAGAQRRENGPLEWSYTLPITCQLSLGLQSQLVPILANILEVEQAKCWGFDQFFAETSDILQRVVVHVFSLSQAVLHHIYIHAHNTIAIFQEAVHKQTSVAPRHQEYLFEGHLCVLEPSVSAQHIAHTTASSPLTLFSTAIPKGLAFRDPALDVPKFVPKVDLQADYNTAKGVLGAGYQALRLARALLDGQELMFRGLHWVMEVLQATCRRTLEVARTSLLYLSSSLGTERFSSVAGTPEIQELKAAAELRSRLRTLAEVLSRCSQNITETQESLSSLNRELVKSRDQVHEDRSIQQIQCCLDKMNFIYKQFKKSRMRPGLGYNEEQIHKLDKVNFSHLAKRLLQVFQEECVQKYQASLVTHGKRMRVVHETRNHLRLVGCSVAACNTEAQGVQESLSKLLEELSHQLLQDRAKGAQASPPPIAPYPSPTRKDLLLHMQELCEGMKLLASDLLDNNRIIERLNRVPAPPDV

[22] = target: Mitogen-activated protein kinase 9 (Homo sapiens) (UniProt P45984); conditions: Compound concentration 1.0 uM
[23] = target: Mitogen-activated protein kinase 1 (Homo sapiens) (UniProt P28482)
Sequence of Mitogen-activated protein kinase 1 (Homo sapiens) (P28482 whole entry): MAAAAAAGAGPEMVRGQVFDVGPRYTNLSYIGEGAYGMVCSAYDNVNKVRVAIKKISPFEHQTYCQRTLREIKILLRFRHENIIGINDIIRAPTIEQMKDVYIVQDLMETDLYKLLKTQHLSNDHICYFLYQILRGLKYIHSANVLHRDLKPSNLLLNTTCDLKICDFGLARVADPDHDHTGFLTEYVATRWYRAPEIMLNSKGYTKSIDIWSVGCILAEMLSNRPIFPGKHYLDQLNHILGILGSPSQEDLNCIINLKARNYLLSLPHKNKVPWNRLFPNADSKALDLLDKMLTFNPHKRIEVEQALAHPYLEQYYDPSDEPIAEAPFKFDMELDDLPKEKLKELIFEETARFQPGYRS

[24] = target: Mitogen-activated protein kinase kinase kinase 9 (Homo sapiens) (UniProt P80192); conditions: Compound concentration 1.0 uM
[25] = target: MAP kinase-activated protein kinase 3 (Homo sapiens) (UniProt Q16644); experiment: MAPKAP-K3 DUNDEE kinase screen (BI); conditions: Compound concentration 10.0 uM
[26] = target: Rhodopsin kinase GRK1 (Homo sapiens) (UniProt Q15835); conditions: Compound concentration 1.0 uM
Sequence of Rhodopsin kinase GRK1 (Homo sapiens) (Q15835 whole entry): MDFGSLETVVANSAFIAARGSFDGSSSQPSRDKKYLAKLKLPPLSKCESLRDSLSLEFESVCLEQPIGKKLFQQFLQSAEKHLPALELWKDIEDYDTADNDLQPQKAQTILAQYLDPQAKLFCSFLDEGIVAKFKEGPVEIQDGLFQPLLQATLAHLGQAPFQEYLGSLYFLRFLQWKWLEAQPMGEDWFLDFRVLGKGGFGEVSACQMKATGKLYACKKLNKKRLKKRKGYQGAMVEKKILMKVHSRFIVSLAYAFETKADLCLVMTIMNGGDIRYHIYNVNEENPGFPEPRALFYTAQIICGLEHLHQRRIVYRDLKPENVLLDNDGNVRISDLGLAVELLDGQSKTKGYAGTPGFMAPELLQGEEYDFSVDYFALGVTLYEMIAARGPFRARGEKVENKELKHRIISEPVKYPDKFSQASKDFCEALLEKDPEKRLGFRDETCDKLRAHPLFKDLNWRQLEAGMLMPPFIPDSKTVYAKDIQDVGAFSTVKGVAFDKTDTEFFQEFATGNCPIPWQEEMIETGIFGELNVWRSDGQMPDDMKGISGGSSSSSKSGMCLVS

[27] = target: Myosin-IIIb (Homo sapiens) (UniProt Q8WXR4); conditions: Compound concentration 1.0 uM
[28] = target: Leukocyte tyrosine kinase receptor (Homo sapiens) (UniProt P29376); conditions: Compound concentration 1.0 uM
[29] = target: T1, Serine/threonine-protein kinase Chk1 (Homo sapiens) (UniProt O14757); experiment: CHK1 DUNDEE kinase screen (BI); conditions: Compound concentration 10.0 uM
T1 sequence (whole entry): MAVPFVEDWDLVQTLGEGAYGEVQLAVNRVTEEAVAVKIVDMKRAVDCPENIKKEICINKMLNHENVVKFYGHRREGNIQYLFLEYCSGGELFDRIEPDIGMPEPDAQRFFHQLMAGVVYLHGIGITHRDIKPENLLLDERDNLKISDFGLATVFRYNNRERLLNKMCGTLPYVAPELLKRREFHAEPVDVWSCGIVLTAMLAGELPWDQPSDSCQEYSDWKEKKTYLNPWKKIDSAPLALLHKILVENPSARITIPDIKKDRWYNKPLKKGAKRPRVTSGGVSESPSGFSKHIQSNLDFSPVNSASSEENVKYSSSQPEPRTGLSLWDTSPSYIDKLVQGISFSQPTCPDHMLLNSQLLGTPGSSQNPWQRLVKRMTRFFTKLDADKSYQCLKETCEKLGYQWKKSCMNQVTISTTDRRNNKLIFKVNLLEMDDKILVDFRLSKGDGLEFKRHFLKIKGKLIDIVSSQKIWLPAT

[30] = target: Ephrin type-A receptor 4 (Homo sapiens) (UniProt P54764); conditions: Compound concentration 1.0 uM
[31] = target: CDK17/Cyclin-Y (Homo sapiens) (UniProt Q00537+Q8ND76); experiment: CDK17/CYCLIN Y Invitrogen Lab (UK) kinase screen (BI); type: protein-complex assay; conditions: Compound concentration 1.0 uM
[32] = test system: Receptor-type tyrosine-protein kinase FLT3 (Homo sapiens), P36888 [UNDEFINED MUTATION]; conditions: Compound concentration 1.0 uM
[33] = target: AMP-activated protein kinase, AMPK (Rattus norvegicus) (UniProt P54645+Q09137+P80386+P80385+Q9QZH4+Q6V7V4+D4A7E4); experiment: AMPK DUNDEE kinase screen (BI); type: protein-complex assay; conditions: Compound concentration 10.0 uM
[34] = target: Phosphatidylinositol 4-phosphate 5-kinase type-1 beta (Homo sapiens) (UniProt O14986); conditions: Compound concentration 1.0 uM
[35] = target: Kinase suppressor of Ras 2 (Homo sapiens) (UniProt Q6VAB6); conditions: Compound concentration 1.0 uM
[36] = target: Serine/threonine-protein kinase DCLK1 (Homo sapiens) (UniProt O15075); conditions: Compound concentration 1.0 uM

Sequence of Hepatocyte growth factor receptor (Homo sapiens) (P08581 whole entry, the tested form may be a part): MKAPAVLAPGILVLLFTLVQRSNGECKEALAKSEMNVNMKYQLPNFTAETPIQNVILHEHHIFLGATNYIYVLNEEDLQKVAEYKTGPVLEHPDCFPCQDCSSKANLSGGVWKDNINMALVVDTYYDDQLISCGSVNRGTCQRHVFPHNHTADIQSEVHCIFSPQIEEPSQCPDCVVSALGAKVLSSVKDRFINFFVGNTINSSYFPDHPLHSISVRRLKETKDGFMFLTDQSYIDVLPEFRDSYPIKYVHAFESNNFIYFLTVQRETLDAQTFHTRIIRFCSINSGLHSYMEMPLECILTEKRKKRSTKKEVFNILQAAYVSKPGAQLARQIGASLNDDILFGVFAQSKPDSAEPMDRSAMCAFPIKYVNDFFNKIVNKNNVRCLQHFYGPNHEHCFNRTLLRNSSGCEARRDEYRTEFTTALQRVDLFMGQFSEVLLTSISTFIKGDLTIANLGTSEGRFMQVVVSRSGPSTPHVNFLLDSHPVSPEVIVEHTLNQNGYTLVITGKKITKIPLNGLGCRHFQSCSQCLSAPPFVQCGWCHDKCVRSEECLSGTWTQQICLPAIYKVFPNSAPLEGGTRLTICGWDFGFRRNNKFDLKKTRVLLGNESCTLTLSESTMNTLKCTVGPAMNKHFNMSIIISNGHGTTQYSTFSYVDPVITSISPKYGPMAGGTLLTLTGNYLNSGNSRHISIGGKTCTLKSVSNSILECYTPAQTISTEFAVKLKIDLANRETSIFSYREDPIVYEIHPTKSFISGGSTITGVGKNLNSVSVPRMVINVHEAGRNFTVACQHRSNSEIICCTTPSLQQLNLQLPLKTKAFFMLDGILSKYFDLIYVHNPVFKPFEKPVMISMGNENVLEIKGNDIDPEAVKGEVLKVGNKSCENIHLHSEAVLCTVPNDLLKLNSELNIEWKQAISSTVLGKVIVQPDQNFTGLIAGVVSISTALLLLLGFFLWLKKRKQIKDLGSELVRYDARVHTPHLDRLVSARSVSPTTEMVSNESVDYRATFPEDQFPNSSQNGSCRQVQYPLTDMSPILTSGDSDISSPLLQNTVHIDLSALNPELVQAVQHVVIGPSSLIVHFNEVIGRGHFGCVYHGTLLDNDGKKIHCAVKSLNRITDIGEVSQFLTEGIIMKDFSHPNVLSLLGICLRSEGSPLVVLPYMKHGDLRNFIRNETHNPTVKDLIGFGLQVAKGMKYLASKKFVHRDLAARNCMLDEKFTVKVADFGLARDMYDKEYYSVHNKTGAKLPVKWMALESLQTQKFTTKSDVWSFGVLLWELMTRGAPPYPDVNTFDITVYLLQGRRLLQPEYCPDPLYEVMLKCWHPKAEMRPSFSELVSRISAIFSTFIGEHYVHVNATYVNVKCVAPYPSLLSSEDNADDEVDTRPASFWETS

CCC(F)(F)c1cc(N2CCC(S(C)(=O)=O)CC2)nc2sc(C(N)=O)c(N)c12 [BI-605906]
residual activity ([1]; Compound concentration 1.0 uM): 103%
residual activity ([1]; Compound concentration 10.0 uM): 90%
residual activity [2]: 106%
inhibition [3]: -8.38%
residual activity [4]: 89%
inhibition [5]: 1.69%
residual activity [6]: 77%
residual activity (Homo sapiens): 75.6%
residual activity [7]: 107%
Ki [8]: 2.62 µM
pKi [8]: 5.59
IC50 [9]: 0.272 µM
residual activity [10]: 92%
inhibition [11]: 8.09%
residual activity [12]: 95%
residual activity ([13]; Compound concentration 1.0 uM): 89%
residual activity ([13]; Compound concentration 10.0 uM): 101%
inhibition [14]: -1.66%
residual activity [15]: 102%
residual activity [16]: 94%
residual activity [17]: 95%
residual activity [18]: 96%
residual activity [19]: 101%
residual activity [20]: 82%
residual activity ([21]; Compound concentration 1.0 uM): 98%
residual activity ([21]; Compound concentration 10.0 uM): 98%
residual activity [22]: 98%
residual activity ([23]; Compound concentration 1.0 uM): 92%
residual activity ([23]; Compound concentration 10.0 uM): 101%
residual activity [24]: 108%
residual activity [25]: 90.2%
residual activity [26]: 87%
residual activity [27]: 90%
residual activity [28]: 99%
residual activity [29]: 90.2%
residual activity [30]: 93%
residual activity [31]: 88%
residual activity [32]: 101%
residual activity [33]: 79.2%
residual activity [34]: 108%
residual activity [35]: 92%
residual activity [36]: 99%
